Measurements reported in US7241785B2, “Five-membered heterocyclic alkanoic acid derivative” (Takeda Pharmaceutical Company Limited, priority 2001, dated 2007).

Target: T1, PPARγ-RXRα heterodimer (Homo sapiens, UniProt P37231)
T1 construct: expressed in transfected cells
T1 sequence (P37231 1-477 isoform P37231-2): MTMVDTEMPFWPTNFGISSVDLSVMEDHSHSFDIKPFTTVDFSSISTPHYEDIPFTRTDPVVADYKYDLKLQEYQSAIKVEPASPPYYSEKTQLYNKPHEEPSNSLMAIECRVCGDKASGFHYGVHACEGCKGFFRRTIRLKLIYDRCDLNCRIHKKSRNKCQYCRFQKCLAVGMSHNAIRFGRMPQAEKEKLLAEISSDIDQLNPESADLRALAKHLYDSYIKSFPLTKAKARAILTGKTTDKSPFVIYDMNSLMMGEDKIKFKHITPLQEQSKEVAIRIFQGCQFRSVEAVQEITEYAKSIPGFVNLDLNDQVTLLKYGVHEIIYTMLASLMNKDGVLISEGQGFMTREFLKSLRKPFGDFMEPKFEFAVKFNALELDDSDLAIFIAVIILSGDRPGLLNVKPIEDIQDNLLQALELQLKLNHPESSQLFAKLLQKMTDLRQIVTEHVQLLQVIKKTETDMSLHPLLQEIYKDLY
T1 sequence (P19793 1-462 partner): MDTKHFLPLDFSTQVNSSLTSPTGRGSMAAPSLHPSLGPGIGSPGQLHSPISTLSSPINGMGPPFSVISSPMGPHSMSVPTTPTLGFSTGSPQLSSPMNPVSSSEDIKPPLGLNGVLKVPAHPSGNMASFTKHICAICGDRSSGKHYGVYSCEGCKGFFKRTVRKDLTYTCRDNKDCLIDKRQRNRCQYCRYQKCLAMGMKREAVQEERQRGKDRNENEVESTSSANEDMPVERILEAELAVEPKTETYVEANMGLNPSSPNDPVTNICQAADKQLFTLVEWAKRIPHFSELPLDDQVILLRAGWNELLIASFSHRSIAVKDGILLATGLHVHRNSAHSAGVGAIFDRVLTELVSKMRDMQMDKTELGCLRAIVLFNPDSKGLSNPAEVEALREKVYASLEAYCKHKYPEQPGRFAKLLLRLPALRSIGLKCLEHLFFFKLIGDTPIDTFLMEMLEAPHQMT
Assay: PPARγ-RXRα heterodimer ligand activity (luciferase reporter, PPARγ:RXRα:4ERPP/CHO-K1 cells)
Format: cell-based
Conditions: concentration for 50% of maximum fold induction of luciferase, 48 hrs
Description: (PPARγ-RXRα Heterodimer Ligand Activity)
PPARγ:RXRα:4ERPP/CHO-K1 cells obtained in Reference Example 8a were cultured in HAM F12 medium (manufactured by NISSUI SEIYAKU) containing 10% fetal bovine serum [manufactured by Life Technologies, Inc., USA], seeded in a 96-well white plate [manufactured by Corning Coster Corporation, USA] at the density of 2×10^4 cells/well and cultured in a CO2 gas incubator at 37° C. overnight.
After washing the 96-well white plate with PBS (Phosphate-buffered saline), 90 μl of HAM F12 medium containing 0.1% fatty acid-free bovine serum albumin (BSA) and 10 μl of test compound were added, and the cells were cultured in a CO2 gas incubator at 37° C. for 48 hrs. The medium was removed and 40 μl of PicaGene 7.5 (manufactured by Wako Pure Chemical Industries, Ltd.) was added. After stirring, the luciferase activity was determined using Lumistar [manufactured by BMG Labtechnologies GmbH, Germany].
The fold induction was calculated from the luciferase activity of each test compound when the luciferase activity of the non-treatment group is taken as 1. The values of the test compound concentration and the fold induction were analyzed using PRISM 2.01 (produced by GraphPad Software Inc. USA) to calculate the EC50 values, the effective concentration of a test compound for 50% of the maximum fold induction.
Introduction of Human PPARγ- and RXRα-Expression Plasmid and Reporter Plasmid into CHO-K1 Cell and Establishment of Expressed Cell
After a CHO-K1 cell cultured in a tissue culture flask (750 ml) (produced by Corning Costar Corporation, USA) containing HAM F12 medium (produced by NISSUI SEIYAKU) supplemented with 10% fetal bovine serum (produced by Life Technologies, Inc., USA) was scraped by treating with 0.5 g/L trypsin-0.2 g/L EDTA (ethylenediaminetetraacetic acid) (produced by Life Technologies, Inc., USA), the cell was washed with PBS (phosphate-buffered saline) (produced by Life Technologies, Inc., USA), centrifuged (1000 rpm, 5 minutes), and then suspended in PBS. Subsequently, a DNA was introduced into the cell under the conditions shown below using GENE PULSER (produced by Bio-Rad Laboratories, USA).
Namely, to a cuvette having a 0.4 cm gap, added were 8×10^6 cells and 10 μg of plasmid pVgRXR2-hPPARγ obtained in Reference Example 7a and 10 μg of reporter plasmid pGL3-4ERPP-TK neo obtained in Reference Example 4a, which was subjected to electroporation at the voltage of 0.25 kV under the capacitance of 960 μF. Subsequently, the cell was transferred into a HAM F12 medium containing 10% fetal bovine serum and cultured for 24 hours and then the cell was scraped again and centrifuged, and then suspended in HAM F12 medium containing 10% fetal bovine serum supplemented with 500 μg/ml of GENETICIN, (produced by Life Technologies, Inc., USA) and 250 μg /ml of ZEOCIN (produced by Invitrogen, USA). The obtained suspension was diluted to the density of 10^4 cells/ml and inoculated to a 96-well plate (produced by Corning Costar Corporation, USA), which was cultured in a CO2 gas incubator at 37° C., whereby obtaining a GENETICIN- and ZEOCIN-resistant transformant.
Subsequently, after the transformant cell line thus obtained was cultured in a 24-well plate (produced by Corning Costar Corporation, USA), selected was a cell line in which the luciferase was expressed and induced, i.e., PPARγ:RXRα:4ERPP/CHO-K1 cell by the addition of 10 μM pioglitazone hydrochloride.

EC50: 9.9 nM
Structure (SMILES): Cc1oc(-c2ccccc2)nc1COc1ccc(Sc2nc(-c3ccccc3)c(CCC(=O)O)o2)cc1 [Example 10, 3-[2-[4-(5-methyl-2-phenyl-4-oxazolylmethoxy)phenylthio]-4-phenyl-5-oxazolyl]propionic acid]
